Laboratory results from patent US5321041A, “Diphenylpyrrolylfuran derivatives” (Nihon Iyakuhin Kogyo Co., Ltd., priority 1992, dated 1994).

How the values were obtained:
[1] = test system: lipid peroxidation (crude homogenate prepared from brain tissues of Wistar rats); assay: Inhibitory activity on lipid peroxidation (anti-oxidation activity); format: biochemical; details: rat brain homogenate, 37° C., 30 minutes; malondialdehyde, 532 nm
Method: EXPERIMENT 1: INHIBITORY ACTIVITY ON LIPID PEROXIDATION (ANTI-OXIDATION ACTIVITY)
The captioned activity was evaluated according to the method described by Kakihana et al., Nihon Yakurigaku Zasshi (Folia Pharmacologica Japonica), 80, p. 225, 1982. To a 1 ml of a crude homogenate prepared from brain tissues of Wistar rats, 10 μl of a solution of test drug in dimethyl sulfoxide was added, and after pre-incubation under ice-cooling for 10 minutes, the mixture was subjected to a reaction at 37° C. for 30 minutes. The reaction was stopped by adding 200 μl of 35% perchloric acid to the mixture and then the mixture was centrifuged. To a 1 ml of the supernatant obtained, 0.5 ml of 0.5% thiobarbituric acid was added and the mixture was heated under a boiling water bath for 15 minutes. The mixture was cooled to room temperature and absorbance of the mixture at 532 nm was measured. The inhibitory rate was obtained using the amount of malondialdehyde generated by the solvent-treated control, which equals to 100%, and 50% median inhibitory concentration (IC50) was calculated according to the probit method as indexes of anti-oxidation activity.

cyclooxygenase = target: T1, cyclooxygenase (Ovis aries, UniProt P05979); assay: Inhibitory activity on cyclooxygenase; format: biochemical; details: PGE2 generation, sheep seminal vesicle microsome, 16 μM 14C-arachidonic acid, pH 8.3
T1 construct: Sheep seminal vesicle microsome fraction (Funakoshi) was used as an enzyme sample; purchased Funakoshi; host or cells: sheep seminal vesicle microsome fraction
T1 sequence (P05979 25-600): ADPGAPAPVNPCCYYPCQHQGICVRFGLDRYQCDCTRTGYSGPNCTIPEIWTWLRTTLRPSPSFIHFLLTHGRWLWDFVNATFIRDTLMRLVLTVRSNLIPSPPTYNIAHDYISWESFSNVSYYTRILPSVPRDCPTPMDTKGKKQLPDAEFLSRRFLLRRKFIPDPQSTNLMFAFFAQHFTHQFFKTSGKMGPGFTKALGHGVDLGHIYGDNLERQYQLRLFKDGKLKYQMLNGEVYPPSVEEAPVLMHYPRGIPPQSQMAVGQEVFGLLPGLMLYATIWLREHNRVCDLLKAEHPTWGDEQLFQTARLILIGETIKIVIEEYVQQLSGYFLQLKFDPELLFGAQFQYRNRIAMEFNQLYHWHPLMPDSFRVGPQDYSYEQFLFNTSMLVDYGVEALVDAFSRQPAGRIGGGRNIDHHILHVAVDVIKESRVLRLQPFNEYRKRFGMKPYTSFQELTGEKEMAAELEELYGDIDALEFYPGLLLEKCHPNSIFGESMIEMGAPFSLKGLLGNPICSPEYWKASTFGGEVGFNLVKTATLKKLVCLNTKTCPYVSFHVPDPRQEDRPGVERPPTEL
Method: EXPERIMENT 3: INHIBITORY ACTIVITY ON CYCLOOXYGENASE
Sheep seminal vesicle microsome fraction (Funakoshi) was used as an enzyme sample. A solution of a test drug was mixed with a reaction solution (3 μM epinephrine, 3 mM glutathione, and the enzyme fraction in 100 mM Tris-HCI buffer, pH 8.3). The mixture was pre-incubated at 37° C. for 5 minutes, and then 16 μ M^14 C-arachidonic acid was added to the mixture, which was allowed to react for 3 minutes. After the completion of the reaction, the product was immediately extracted, dissolved in chloroform/methanol (2:1) and developed by thin-layer chromatography. Radioactivity of the prostaglandin E2 (PGE2) fraction was measured using a liquid scintillation counter. Inhibitory rate of each drug-treated group against PGE2 generation was obtained in comparison with the solvent-treated control, and IC50 was calculated according to the probit method.

[2] = test system: auricle edema induced by arachidonic acid; assay: Inhibitory activity on auricle edema induced by arachidonic acid; format: in vivo, ddY mice; details: mouse, oral, 1 hour after arachidonic acid
Method: EXPERIMENT 5: INHIBITORY ACTIVITY ON AURICLE EDEMA INDUCED BY ARACHIDONIC ACID
[…]. Dermatol. 82, p. 367, 1984. The mice were orally administered with a test drug suspended in 0 5% CMC-Na, and after one hour, 10 μl of arachidonic acid in acetone (50 mg/ml) were applied to front and back surfaces of the left auricles of each mouse. One hours later, the thicknesses of the left and right auricles were measured by means of a dial gauge, and the rate of edema of the left auricle was calculated in comparison with the right auricle (normal). Inhibitory rate of each drug-treated group against edema formation was calculated in comparison with the solvent-treated control.

[3] = test system: auricle edema induced by oxazolone; assay: Effect on auricle edema induced by oxazolone (delayed allergy); format: in vivo, ICR mice; details: mouse, oral, 10 mg/kg × 2 (30 minutes before, 6 hours after), 24 hours
Method: EXPERIMENT 6: EFFECT ON AURICLE EDEMA INDUCED BY OXAZOLONE (DELAYED ALLERGY)
[…]. The mice were sensitized by the application of 0.1 ml of 0.5% oxazolone in ethanol to shaven abdominal skin. Five days later, inflammation was induced by applying 10 μl of 0.5% oxazolone in acetone to front and back surfaces Of the right auricle. After 24 hours, the thicknesses of the left and right auricles were measured by a dial gauge, and the rate of edema of the right auricle was calculated in comparison with the left auricle (normal). A test drug was suspended in 0.5% CMC--Na and orally administered twice to each mouse , i.e., 30 minutes before and 6 hours after the inflammation-inducing treatment. Inhibitory rate of each drug-treated group against edema was calculated in comparison with the solvent-treated control.

[4] = test system: paw edema induced by carageenin; assay: Inhibitory activity on paw edema induced by carageenin; format: in vivo, Wistar rats; details: rat, oral, 10 mg/kg, 3 hours after carageenin
Method: EXPERIMENT 4: INHIBITORY ACTIVITY ON PAW EDEMA INDUCED BY CARAGEENIN
Wistar rats (body weight: 110-130 g) starved overnight were orally administered with a test drug suspended in 0.5% CMC-Na, and after one hour, 0.1 ml of 1% carageenin solution (picnin-A, Zushi Kagaku) was subcutaneously injected into the right hind leg paw of each rat. Three hours later, the volume of the paw was determined by means of a plethysmometer (Model 7150, Ugo Basile Co.,Ltd.) and the rate of edema was evaluated in comparison with the volume of the paw before the carageenin injection as 100%. Inhibitory rate of each drug-treated group against edema formation was calculated in comparison with the solvent-treated control.

granuloma formation = assay: Inhibitory activity on granuloma formation (proliferative inflammation); format: in vivo, Wistar rats; details: rat, oral, 10 mg/kg every day for 8 days
Method: EXPERIMENT 7: INHIBITORY ACTIVITY ON GRANULOMA FORMATION (PROLIFERATIVE INFLAMMATION)
Evaluation was carried out by using Wistar rats (120-140 g) according to the method described by Fujiyoshi et al., Nihon Yakurigaku Zasshi (Folia Pharmacologica Japonica), 87, p. 379, 1986. Back skin of the rat was lightly incised under anesthesia with pentobarbital, and filter paper discs for antibiotic assay (57 mg, 13.0.phi., Whatman) sterilized by autoclave were embedded under the skin at the both axillae. 0.1 ml of a mixture of streptomycin and penicillin G (each 1 mg/ml) was administered dropwise to the incised site and the incised skin was sutured. From the day of the disc embedment, a test drug suspended in 0.5% CMC--Na was orally administered to the rat every day for 8 days. The rat was sacrificed at the day of last administration and granuloma including the filter paper was extirpated from the circumferential tissue and dried at 110° C. overnight. The dry weight of the granuloma was measured and inhibitory rate of each drug-treated group against granulation formation was calculated in comparison with the solvent-treated control.

ddY mice = assay: Acute toxicity; format: in vivo; details: mouse, oral, 600 mg/kg, observed for 2 weeks
From the text: EXPERIMENT 9: ACUTE TOXICITY

5-lipoxygenase = target: T2, 5-lipoxygenase (Cavia porcellus, UniProt A0A286X958); assay: Inhibitory activity on 5-lipoxygenase; format: biochemical, guinea pigs; details: 5-HETE generation, 20 μM 14C-arachidonic acid, pH 7.4, 37° C., 10 minutes
T2 construct: crude enzyme fraction prepared from peritoneal exudated cells of guinea pigs; endogenous in cells; host or cells: guinea pig peritoneal exudate cells (induced by intraperitoneal casein), crude enzyme fraction
T2 sequence (A0A286X958 1-674): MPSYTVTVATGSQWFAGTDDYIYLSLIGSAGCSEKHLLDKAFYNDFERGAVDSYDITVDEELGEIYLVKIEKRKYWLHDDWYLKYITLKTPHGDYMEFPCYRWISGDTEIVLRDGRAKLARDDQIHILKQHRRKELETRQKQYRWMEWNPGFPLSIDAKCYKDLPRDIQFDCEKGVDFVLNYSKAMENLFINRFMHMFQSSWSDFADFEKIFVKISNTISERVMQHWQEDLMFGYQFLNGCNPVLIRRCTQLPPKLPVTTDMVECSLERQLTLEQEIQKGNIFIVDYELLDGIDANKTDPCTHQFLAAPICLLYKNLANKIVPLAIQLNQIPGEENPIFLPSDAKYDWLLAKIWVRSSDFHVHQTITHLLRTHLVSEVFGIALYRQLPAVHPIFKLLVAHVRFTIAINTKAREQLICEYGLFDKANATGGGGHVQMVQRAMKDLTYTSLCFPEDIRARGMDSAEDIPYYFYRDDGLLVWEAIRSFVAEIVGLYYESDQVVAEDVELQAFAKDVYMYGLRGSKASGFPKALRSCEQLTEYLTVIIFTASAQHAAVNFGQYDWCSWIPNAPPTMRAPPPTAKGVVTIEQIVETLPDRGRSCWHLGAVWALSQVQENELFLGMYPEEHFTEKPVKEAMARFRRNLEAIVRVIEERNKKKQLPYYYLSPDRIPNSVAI
Method: EXPERIMENT 2: INHIBITORY ACTIVITY ON 5-LIPOXYGENASE
5-Lipoxygenase activity was determined according to the method described by Ochi et al., J. Biol. Chem.,258, p. 5754, 1983 using a crude enzyme fraction prepared from peritoneal exudated cells of guinea pigs which were induced by intraperitoneal injection of 2% case in solution. A solution of a test drug was mixed with a reaction solution (2mM ATP, 1 mM glutathione,and the enzyme fraction in 50 mM phosphate buffer, PH 7.4) and the mixture was pre-incubated at 37° C. for 5 minutes. Calcium chloride (1 mM) and 20 μM^14 C-arachidonic acid were added to the mixture, and then the mixture was subjected to a reaction at 37° C. for 10 minutes. After the completion of the reaction, the product was immediately extracted, dissolved in chloroform/methanol (2:1), and developed by thin-layer chromatography. Radioactivity of the 5-hydroxyeicosatetraenoic acid (5-HETE) fraction was measured using a liquid scintillation counter. Inhibitory rate of each drug-treated group against 5-HETE generation was obtained in comparison with the solvent-treated control, and IC50 was calculated according to the probit method.

Structure (SMILES)	IC50 [1]	IC50 (cyclooxygenase)	Inhibition on Edema (%) ([2]; 30 mg/kg)	further results
CC(C)Cc1ccc(C(C)C(=O)O)cc1 (stereo not drawn) [Ibuprofen, reference compound]				Inhibition on Edema (%) ([2]; 100 mg/kg): 0%
CCOc1ccc(-c2cc(-c3ccc(CC)n3CC(=O)O)oc2-c2ccc(OCC)cc2)cc1 [Compound 217]	2440 nM			
COc1ccc(-c2cc(-c3cc(C(C)C)cn3CC(=O)O)oc2-c2ccccc2)cc1 [Compound 142]				Inhibition on Edema (%) [3]: 62.2%; Inhibition on Edema (%) [4]: 45.4%
CC(C)c1cc(-c2cc(-c3ccccc3)c(-c3ccccc3)o2)n(CC(=O)O)c1 [Compound 117]	4830 nM			Inhibition on Edema (%) [4]: 50.9%
COc1ccc(-c2cc(-c3cccn3CC(=O)O)oc2-c2ccc(OC)cc2)cc1 [Compound 175]	3630 nM	69 nM	50.6%	Inhibition on Granuloma (%) (granuloma formation): 32.2%; Inhibition on Edema (%) [3]: 52.1%; Dead Mice/Total Mice (ddY mice): 1/5; Inhibition on Edema (%) [4]: 44.1%
CCCc1ccc(-c2cc(-c3ccc(OC)cc3)c(-c3ccc(OC)cc3)o2)n1CC(=O)O [Compound 195]			43.9%	IC50 (5-lipoxygenase): 910 nM
O=C(O)Cn1cccc1-c1cc(-c2ccccc2)c(-c2ccccc2)o1 [Compound 114]			41.9%	
COc1ccc(-c2cc(-c3ccc(C)n3CC(=O)O)oc2-c2ccc(OC)cc2)cc1 [Compound 192]		57 nM		Dead Mice/Total Mice (ddY mice): 0/5; IC50 (5-lipoxygenase): 910 nM; Inhibition on Edema (%) [4]: 38.4%
COc1ccc(-c2cc(-c3cc(C(C)C)cn3CC(=O)O)oc2-c2ccc(OC)cc2)cc1 [Compound 188]	2410 nM		55.0%	Inhibition on Granuloma (%) (granuloma formation): 29.7%; Inhibition on Edema (%) [3]: 44.2%; Dead Mice/Total Mice (ddY mice): 4/5; IC50 (5-lipoxygenase): 1110 nM
CCc1ccc(-c2cc(-c3ccc(OC)cc3)c(-c3ccc(C)cc3)o2)n1CC(=O)O [Compound 165]	2730 nM			

Continued, in another order:

IC50 [1]	IC50 (cyclooxygenase)	Structure (SMILES)	Inhibition on Edema (%) ([2]; 30 mg/kg)	further results
3130 nM	75 nM	COc1ccc(-c2oc(-c3cccn3CC(=O)O)c(C)c2-c2ccc(OC)cc2)cc1 [Compound 184]		
3240 nM		COc1ccc(-c2cc(-c3cccn3CCC(=O)O)oc2-c2ccc(OC)cc2)cc1 [Compound 178]		
	82 nM	COc1ccc(-c2oc(-c3cccn3CC(=O)O)cc2-c2ccccc2)cc1 [Compound 150]		
2200 nM	95 nM	CCc1cc(-c2cc(-c3ccc(OC)cc3)c(-c3ccc(OC)cc3)o2)n(CC(=O)O)c1 [Compound 185]		IC50 (5-lipoxygenase): 1000 nM
4490 nM	111 nM	COc1ccc(-c2cc(-c3cccn3C(C)C(=O)O)oc2-c2ccc(OC)cc2)cc1 (stereo not drawn) [Compound 176]	30.6%	Inhibition on Granuloma (%) (granuloma formation): 32.4%; Inhibition on Edema (%) [3]: 56.4%
